Source: patent US20110117026A1, “METHODS AND COMPOSITIONS FOR THE DELIVERY OF BIOACTIVE COMPOUNDS” (priority 2008, published 2011)
Non-standard residues stand in square brackets, D forms with d. Residues, ends and D or L forms follow the SMILES beside them. No end group written: not given here. pY = N[C@@H](Cc1ccc(OP(=O)(O)O)cc1)C(=O)O

Experiments:
[1] = molecular target: T1, STAT5b phosphorylation by EGFR (Homo sapiens, UniProt P51692); assay: Cell-free inhibition of STAT5b phosphorylation in H460 cell lysate (Western blot); type: biochemical
T1 construct: In a cell-free system containing the lysate of H460 cells treated with EGF; endogenous in cells; host or cells: H460 cell lysate (cells treated with EGF)
T1 sequence (P51692 1-787): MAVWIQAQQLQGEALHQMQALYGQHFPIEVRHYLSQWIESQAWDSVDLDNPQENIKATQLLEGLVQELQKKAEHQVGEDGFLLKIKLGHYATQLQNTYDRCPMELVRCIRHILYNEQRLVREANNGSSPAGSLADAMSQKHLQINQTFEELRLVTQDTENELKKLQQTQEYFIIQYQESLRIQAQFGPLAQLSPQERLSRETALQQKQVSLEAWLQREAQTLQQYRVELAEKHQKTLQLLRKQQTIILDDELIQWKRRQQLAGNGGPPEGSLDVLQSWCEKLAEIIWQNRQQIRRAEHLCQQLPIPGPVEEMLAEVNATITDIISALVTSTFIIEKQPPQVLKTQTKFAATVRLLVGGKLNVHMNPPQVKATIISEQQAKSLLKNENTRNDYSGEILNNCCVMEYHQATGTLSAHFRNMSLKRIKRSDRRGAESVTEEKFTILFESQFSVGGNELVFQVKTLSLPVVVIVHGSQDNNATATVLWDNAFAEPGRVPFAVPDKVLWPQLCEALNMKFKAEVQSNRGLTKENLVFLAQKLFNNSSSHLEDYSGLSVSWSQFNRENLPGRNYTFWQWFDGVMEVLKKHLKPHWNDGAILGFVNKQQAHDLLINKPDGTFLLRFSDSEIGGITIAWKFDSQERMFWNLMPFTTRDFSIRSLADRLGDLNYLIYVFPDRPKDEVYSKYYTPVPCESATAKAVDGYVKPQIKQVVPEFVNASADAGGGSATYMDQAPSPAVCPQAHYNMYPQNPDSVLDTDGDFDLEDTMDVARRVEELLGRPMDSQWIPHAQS
Procedure: FIGS. 20A and 20B show the inhibition of STAT5b phosphorylation by the EV peptide (SEQ ID NO: 3) in a tumor cell lysate. Increasing amounts of EV peptide was added to the assay mixture containing H460 cell lysate. The degree of STAT5b phosphorylation was detected by Western blot (FIG. 20A) using a phosphorylated STAT5b specific monoclonal antibody. The data was analyzed by Image J software to obtain the IC50 (FIG. 20B).
Studies were initiated by selecting a highly anionic peptide that can block an important intracellular signaling event. The phosphorylation and activation of the signal transducer and activator of transcription 5b (STAT5b) by the epidermal growth factor receptor (EGFR) tyrosine kinase was chosen as the targeted signaling event. STAT proteins are cytoplasmic proteins that function as secondary messengers and transcription factors. The STAT proteins have a phosphotyrosine binding domain of src-homology 2 (SH2). The potential of the SH2 domain to interact with a number of signaling proteins allow the STATs to interfere with multiple cell signaling pathways (Mohamad and Mohammad (2006) JK-Practitioner 13(4):215-221). STAT activation has been implicated in human cancer cells, including the activation of upstream receptor tyrosine kinases, such as the EGFR, as well as nonreceptor kinases. […]

H460 cells [2] = assay: Uptake of Alexa488 EV peptide by H460 cells; type: cell-based, human; conditions: Alexa488-labeled EV peptide, 4 h
Procedure: After treating H460 cells for four hours with an Alexa488 conjugated EV peptide formulated in LPH, PEG-LPH, or PEG-AA-LPH, cells were washed, treated with Triton X-100, and the fluorescence of the cell extract was determined with a fluorometer.
The uptake of the peptide by H460 cells was first studied in vitro. The EV peptide was fluorescently labeled with Alexa488 at the N-terminal α-NH2 group, purified by gel filtration, and formulated in the nanoparticles. […] Free EV peptide was not taken up by H460 cells at all.

H460 cells [3] = assay: Inhibition of H460 cell growth; type: cell-based, human; conditions: EV peptide 5 μM
Procedure: H460 cells were treated with the EV peptide (5 μM) formulated in LPH-PEG-AA, LPH-PEG, or as a free peptide.
(§1) The effect of the delivered EV peptide on the growth of H460 cells was then investigated.

H460 cells [4] = assay: Apoptosis of H460 cells by flow cytometry (annexin V, propidium iodide); type: cell-based, human; conditions: 48 hours after treatment
Procedure: Cells were stained with propidium iodide (PI) and Annexin V-FITC at 48 hours after treatment with a PEGylated LPH with AA or without AA.
as §1

recombinant caspase 3 = molecular target: T2, recombinant caspase 3 (Homo sapiens, UniProt P42574); assay: Cleavage of imaging peptide by caspase 3 (Cy5.5/Cy7 FRET, nanofluorometer); type: biochemical
T2 sequence (P42574 29-175 limits assumed): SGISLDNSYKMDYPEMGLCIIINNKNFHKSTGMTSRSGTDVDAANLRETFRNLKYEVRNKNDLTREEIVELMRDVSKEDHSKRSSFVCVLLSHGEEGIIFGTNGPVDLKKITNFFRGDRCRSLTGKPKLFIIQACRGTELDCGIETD
T2 sequence (P42574 176-277 limits assumed): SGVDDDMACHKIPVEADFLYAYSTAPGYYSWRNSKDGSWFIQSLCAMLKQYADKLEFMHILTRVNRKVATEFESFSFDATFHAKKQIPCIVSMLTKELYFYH
Procedure: The fluorescence emission profiles of untreated peptide (FIG. 27A), peptide treated with 60 units of caspase-3 for 2 hours (FIG. 27B), peptide treated with 0.1 mg BSA (FIG. 27C), and peptide treated with 60 units caspase-3 that was pre-incubated with 10 μM caspase-3 inhibitor for one hour (FIG. 27D) were measured with a nanofluorometer.
The fluorescence spectrum of the peptide was recorded with a nanofluorometer which only requires a 2 μL sample volume.

STAT5b = molecular target: T3, STAT5b (Homo sapiens, UniProt P51692); assay: STAT5b phosphorylation in intact H460 cells (ELISA); type: cell-based; conditions: 3.4 μM peptide, 24 h
T3 construct: endogenous in cells; host or cells: H460 cells
T3 sequence (P51692 1-787): T1 sequence (P51692 1-787)
Procedure: FIG. 22 provides a graph depicting the inhibition of STAT5b phosphorylation by the EV peptide. At 24 hours after treating H460 cells with LPH, LPH-PEG or LPH-PEG-AA comprising the EV (SEQ ID NO: 3) or EE (SEQ ID NO: 4) peptide or the free peptide at 3.4 μM, the reduction of phosphorylated Stat5b was assayed with an ELISA.
Next, the pharmacodynamics of the EV peptide was studied in vitro.

CC(C)C[C@H](NC(=O)[C@H](CCC(=O)O)NC(=O)[C@H](Cc1ccccc1)NC(=O)[C@H](Cc1ccc(OP(=O)(O)O)cc1)NC(=O)[C@H](CCC(=O)O)NC(=O)[C@H](CCC(=O)O)NC(=O)[C@H](CCC(=O)O)NC(=O)[C@@H](N)CCC(=O)O)C(=O)N[C@H](C(=O)O)C(C)C [EV peptide, EEEE(pY)FELV] (H-EEEE[pY]FELV-OH; C-terminus assumed)
IC50 [1]: 2500 nM | uptake by H460 cells (H460 cells [2]): not taken up | effect on growth of H460 cells (H460 cells [3]): no effect | apoptosis, in words (H460 cells [4]): without any effect

Ac-KDEVDCDEVDKDEVDC (also: Cy5.5 on Cys, Cy7 on Lys) [imaging peptide, caspase 3 FRET reporter]
ratio of Cy5.5/Cy7 (recombinant caspase 3; after incubation with recombinant caspase 3 (60 units, 2 hours)): 2.70 | ratio of Cy5.5/Cy7 (recombinant caspase 3; intact (untreated) peptide): 1.74

E(pY)ELFEEVE (E[pY]ELFEEVE) [EE peptide, reference compound]
effect on STAT5b phosphorylation, in words (STAT5b): did not show any significant effect
